The test deals with pIRG dual reporter in HEK 293T cells. Briefly: Small molecule activation of Cas9-OABK in live cells (DsRed/EGFP dual reporter assay). In kind it is cell-based, human. To be noted: for Concentration dependence of EGFP expression (activation of gene editing): varying concentrations (0-500 μM) of phosphine, Cas9-OABK. On the procedure:
HEK 293T cells were seeded into a 96-well cell culture microplate (Greiner), and incubated overnight in DMEM growth media supplemented with 10% FBS and 1% penicillin/streptomycin at 37° C. in 5% CO2 humidified atmosphere. Before transfection, media was replaced with antibiotics-free DMEM supplemented with or without OABK (0.25 mM). Quadruple transfections were carried out with linear PEI using pMbOABKRS-wtCas9 or pMbOABKRS-Cas9-K866TAG, p4CMVE-U6-PylT (Gautier et al., J Am Chem Soc 132, 4086-4088, 2010), gRNA plasmids (Hemphill et al., J Am Chem Soc 137, 5642-5645, 2015), and pRG dual reporter plasmid ((Hemphill et al., J Am Chem Soc 137, 5642-5645, 2015)) (100 ng of each). After a 24 h incubation, cells were washed with fresh DMEM and incubated for 2 h. For regulating gene editing in live cells, HEK 293T cells were treated with 5 (0.5 mM) or without 5. After overnight incubation, media was replaced with DMEM without phenol red, and cells were imaged on a Zeiss Observer Z1 microscope (10× objective, NA 0.8 plan-apochromat) with EGFP BP470/40; Em: BP525/50) and DsRed BP550/25; Em: BP605/70) filter cubes. Fluorescent cell counting was performed on a Nikon A1 confocal microscope (10× objective) and analyzed using Elements software.
The function of Cas9-OABK in the absence and presence of phosphine derivatives 5 and 6 (see FIG. 14) was investigated using a DsRed/EGFP dual reporter assay (FIG. 15A). […] Once Cas9-OABK is activated by the small molecule phosphine, the complex of functional Cas9 and gRNAs induces excision of the DsRed-terminator cassette, followed by NHEJ repair, and leading to EGFP expression.
(In general: A reporter such as luciferase makes a cellular process visible.)

As for `NC(=O)c1ccccc1P(c1ccccc1)c1ccccc1` [compound 6, 2-(diphenylphosphino)benzamide], the “Concentration dependence of EGFP expression (activation of gene editing)” value was “dose-dependent”. Also, where the note is “live HEK 293T cells, concentrations 0-500 μM tested”, the “Effective concentration of phosphine for activation of Cas9-OABK” value was found to be 25 µM.

Regarding `O=C(O)c1ccccc1P(c1ccccc1)c1ccccc1` [compound 5, 2-(diphenylphosphino)benzoic acid], the “Concentration dependence of EGFP expression (activation of gene editing)” value was “dose-dependent”.

The values above are taken from patent US11214779B2, “Activatable CRISPR/CAS9 for spatial and temporal control of genome editing” (University of Pittsburgh—Of the Commonwealth System of …, priority 2015, dated 2022).
